Assays:
hair follicles [1] = experiment: Relative growth of hair follicles compared to control, OKG versus Ornithine and alpha-Ketoglutarate; type: cell-based, human; details: for Growth of hair follicles - elongation ± standard error, relative to control (100): after 6 days of cultivation
Description: (§1) Human anagen hair follicles were isolated from scalp skin and transferred for cultivation in sterile 24 well plates using a modified Williams' Medium E. Cultivation took place for nine days, while the experimental treatment of the follicles started 24 hours from the beginning of the cultivation.
(§2) Hair follicles taken from a single donor were selected for the experiments after 18 h of cultivation. Only those follicles showing a good vital stage and a growth of not less than 0.2 mm have been considered suitable to be maintained in culture. 4 groups were prepared comprising 9 follicles, plated at the density of 3 hair follicles/plate. […] The growth of the hair follicles was studied by microphotography and subsequently determined by image analysis. All the hair follicles were photographed every two days.
In order to show the superiority of OKG compared to Ornithine on one hand and alpha-Ketoglutarate on the other, the influence of these compounds on the metabolism of hair follicles was studied under the conditions as explained in Examples 1 and 2. […] Examples 3 and 4 are according to the invention, examples C1-C4 are shown for comparison.

A 549 cells = details: disclosed in WO 06/075924 A1; cited from earlier work
hair follicles [2] = experiment: Histological analysis of hair follicles (anagen/catagen phase); type: cell-based, human; details: after 9 days of cultivation
Description: The experiment according to Examples 1 and 2 was terminated after 9 days of cultivation. Subsequently, the hair follicles were subjected to a histological analysis by colouring with haematossilin and eosin in order to verify the morphological state of the dermopapilla.

[3] = test system: Human anagen hair follicles; experiment: Growth (elongation) of cultivated human hair follicles; type: cell-based
Description: as §1, §2

[4] = test system: cells in the dermopapilla; experiment: Number of proliferative (Ki-67) and apoptotic (Apoptag) cells in the dermopapilla; type: cell-based, human; details: after three days of cultivation
Description: After three days of cultivation samples were taken in order to determine the relative number of cells being in the proliferative or apoptotic state. The cells in apoptotic state were determined using an Apoptag Fluorescein In-situ Apoptosis Detection Kit (Chemicon International cod. S7110), while those in proliferative state were marked with the antibody Ki-67 (monoclonal mouse anti-human Ki-67, clone MIB1, Dako Cytomation cod. M7240). The total number of cells in the dermopapilla was analysed by marking their nuclei by means of DAPI (4′, 6-diamidino-2-phenylindol dihydrochloride). The percentage of cells in the proliferative or apoptotic stage compared to the total number of cells was determined again by image analysis.

For `O=C(O)CCC(=O)C(=O)O` [alpha-Ketoglutarate], the “Growth of hair follicles - elongation ± standard error, relative to control (100)” value (hair follicles [1]; Conc. 0.001% b.w.) was 103.1 ± 3.1% and the “Growth of hair follicles - elongation ± standard error, relative to control (100)” value (hair follicles [1]; Conc. 0.01% b.w.) was 103.8 ± 3.8%.
For Ornithine Ketoglutarate [OKG], the “Effect on proliferation of A 549 cells (in words)” value (A 549 cells) is listed as “stimulate the proliferation of A 549 cells”, the “Hair follicle stimulation compared to Ornithine and alpha-Ketoglutarate taken alone (in words)” value (hair follicles [1]; 0.001 and 0.01% b.w., 6 days) is listed as “superiority and synergistic effect” and the “Growth of hair follicles - elongation ± standard error, relative to control (100)” value (hair follicles [1]; Conc. 0.001% b.w.) is listed as 112.7 ± 3.1%. For the same molecule, the “Growth of hair follicles - elongation ± standard error, relative to control (100)” value (hair follicles [1]; Conc. 0.01% b.w.) was 110.4 ± 4.0%, the “Hair follicles in Catagen phase” value (hair follicles [2]; OKG 0.1% b.w., control 44%) was 22% and the “Hair follicles in Anagen phase” value (hair follicles [2]; OKG 0.1% b.w., control 56%) was 78%. The “Effect on decline to the catagen phase (in words)” value (hair follicles [2]) was “significantly delayed the decline to the catagen phase”, the “Growth of hair follicles - elongation ± standard error” value ([3]; OKG 0.005% b.w. in cultivation medium, day 1 of cultivation) was 0 mm and the “Growth of hair follicles - elongation ± standard error” value ([3]; OKG 0.005% b.w. in cultivation medium, day 3 of cultivation) was 0.84 ± 0.022 mm. For the same molecule, the “Growth of hair follicles - elongation ± standard error” value ([3]; OKG 0.005% b.w. in cultivation medium, day 5 of cultivation) was 1.50 ± 0.078 mm, the “Growth of hair follicles - elongation ± standard error” value ([3]; OKG 0.005% b.w. in cultivation medium, day 7 of cultivation) was 1.98 ± 0.155 mm and the “Growth of hair follicles - elongation ± standard error” value ([3]; OKG 0.005% b.w. in cultivation medium, day 9 of cultivation) was 2.35 ± 0.253 mm. The “Growth of hair follicles - elongation ± standard error” value ([3]; OKG 0.01% b.w. in cultivation medium, day 1 of cultivation) was 0 mm, the “Growth of hair follicles - elongation ± standard error” value ([3]; OKG 0.01% b.w. in cultivation medium, day 3 of cultivation) was 0.88 ± 0.024 mm and the “Growth of hair follicles - elongation ± standard error” value ([3]; OKG 0.01% b.w. in cultivation medium, day 5 of cultivation) was 1.63 ± 0.067 mm. For the same molecule, the “Growth of hair follicles - elongation ± standard error” value ([3]; OKG 0.01% b.w. in cultivation medium, day 7 of cultivation) was 2.25 ± 0.086 mm, the “Growth of hair follicles - elongation ± standard error” value ([3]; OKG 0.01% b.w. in cultivation medium, day 9 of cultivation) was 2.77 ± 0.163 mm and the “Effect on growth of the hair follicles (in words)” value ([3]; addition of OKG 0.005 to 0.01% b.w. versus control) was “significant increase in growth of the hair follicles”. The “Number of cells in Apoptotic stage ± standard error (of total cells)” value ([4]; OKG 0.1% b.w., control 0.48%) was 0.17% ± 0.073, the “Number of cells in Proliferative stage ± standard error (of total cells)” value ([4]; OKG 0.1% b.w., control 10.74%) was 10.51% ± 0.17 and the “Effect on number of apoptotic cells (in words)” value [4] was “significantly reduces the number of apoptotic cells”.
With `NCCC[C@H](N)C(=O)O` [Ornithine] the “Growth of hair follicles - elongation ± standard error, relative to control (100)” value (hair follicles [1]; Conc. 0.001% b.w.) was 105.1 ± 5.1% and the “Growth of hair follicles - elongation ± standard error, relative to control (100)” value (hair follicles [1]; Conc. 0.01% b.w.) was 102.1 ± 5.0%.

Source: patent publication US8466112B2, “Compositions comprising Ornithine Ketoglutarate (OKG)” (Cutech S.r.l., priority 2007, dated 2013)
